Peptide text beside a SMILES is read from it. * marks the point of attachment. Cbz = O=C(OCc1ccccc1)*; CH2F = FC*
Key:
Assay type in all cases: cell-based, human
[1] = tested on: Caspase-3 activity in control and GFRα1-deficient MG-63 cells; test: Caspase-3 activity (Colorimetric CaspACE assay); details: cisplatin 20 μM 24 hr, ZVAD-FMK 50 μM
Source text: FIG. 2. GFRα1 suppresses the chemosensitivity of osteosarcoma cells induced by cisplatin. (a) Generation of GFRα1-deficient osteosarcoma cell lines with GFRα1 shRNA. Both MG-63 and U-2 OS cells were transfected with control or GFRα1 shRNA. Immunoblot analysis of control and GFRα1-deficient stable osteosarcoma cell lysates with antibodies specific for GFRα1 and β-actin. (b) Cell viability of GFRα1-deficient osteosarcoma cells after cisplatin treatment. Control or GFRα1-deficient cells were cultured and treated with different concentrations of cisplatin for 24 hr. Cell viability was measured using the WST-1 assay. The values are represented as a mean±s.d.m. (n=3). ** denotes p<0.05 by t-test. (c) Apoptotic response of GFRα1-deficient osteosarcoma cells after cisplatin treatment. […] Apoptotic cells by FITC-Annexin V staining (top) and viable cells by PI staining (bottom) were analyzed through flow cytometry. […] Cell viability was measured using the WST-1 assay. […] Apoptotic cells by FITC-Annexin V staining (top) and viable cells by PI staining (bottom) were analyzed through flow cytometry. […]
Apoptosis Assays. […] Apoptotic cells were analyzed using a FACSCalibur flow cytometer with CellQuest software (Becton Dickinson, Franklin Lakes, N.J.). […] Caspase 3 activity was analyzed by the Colorimetric CaspACE™ Assay System (Promega, Madison, Wis.) according the manufacturer's instructions. […]

[2] = tested on: LC3-II in GFRα1-overexpressing MG-63 cells; test: Immunoblot of LC3-II in GFRα1-overexpressing cells; details: 3-MA (10 μM) or Baf (100 nM)
Method: FIG. 3. GFRα1-induced autophagy enhances the chemoresistance of osteosarcoma cells induced by cisplatin. (a) Control and GFRα1-deficient MG-63 cells were transiently transfected with a mRFP-GFP tandem fluorescent-tagged LC3 (mRFP-GFP-LC3) vector and then treated with cisplatin (20μM) for 24 hr. Left, representative images of RFP-LC3 and GFP-LC3 puncta. Scale bar, 20 μm. Right, quantitative analysis of the number of yellow puncta and the number of RFP-LC3 puncta in the combined images. The values are represented as a mean±s.d.m. (n=3). ** denotes p<0.05 by t-test. (b) Control and GFRα1-deficient MG-63 cells were treated with cisplatin (20 μM) for 24 hr and then stained with acridine orange. […] Bottom, quantitative analysis of the number of AVOs. […] (c) Control and GFRα1-deficient MG-63 cells were treated with cisplatin (20 μM) for 24 hr and then analyzed by TEM. Top, representative images of autophagic vacuoles (yellow arrows) detected after cisplatin treatment in control MG-63 cells. […] Bottom, quantitative analysis of the number of autophagic vacuoles. […] (e) Quantitative analysis of the number of yellow puncta and the number of RFP-LC3 puncta in control and GFRα1-overexpressing MG-63 cells. […] Bottom, quantitative analysis of the number of AVOs. […] (h) Control and GFRα1-overexpressing MG-63 cells were treated with cisplatin (20 μM) for 24 hr and then analyzed by TEM. […]

[3] = tested on: GFRα1-overexpressing MG-63 cells; test: WST-1 cell viability of GFRα1-overexpressing osteosarcoma cells; details: with DMSO, 3-MA or Baf, then cisplatin 20 μM 24 hr
Method: FIG. 3. GFRα1-induced autophagy enhances the chemoresistance of osteosarcoma cells induced by cisplatin. (a) Control and GFRα1-deficient MG-63 cells were transiently transfected with a mRFP-GFP tandem fluorescent-tagged LC3 (mRFP-GFP-LC3) vector and then treated with cisplatin (20μM) for 24 hr. Left, representative images of RFP-LC3 and GFP-LC3 puncta. Scale bar, 20 μm. Right, quantitative analysis of the number of yellow puncta and the number of RFP-LC3 puncta in the combined images. The values are represented as a mean±s.d.m. (n=3). ** denotes p<0.05 by t-test. (b) Control and GFRα1-deficient MG-63 cells were treated with cisplatin (20 μM) for 24 hr and then stained with acridine orange. Top, representative images of cells stained with acridine orange. Scale bar, 20 μm. Bottom, quantitative analysis of the number of AVOs. The values are represented as a mean±s.d.m. (n=3). ** denotes p<0.05 by t-test. (c) Control and GFRα1-deficient MG-63 cells were treated with cisplatin (20 μM) for 24 hr and then analyzed by TEM. Top, representative images of autophagic vacuoles (yellow arrows) detected after cisplatin treatment in control MG-63 cells. Scale bar, 100 nm. Bottom, quantitative analysis of the number of autophagic vacuoles. The values are represented as a mean±s.d.m. (n=3). ** denotes p<0.05 by t-test. (d) Immunoblot analysis of control and GFRα1-overexpressing osteosarcoma cell lysates with antibodies specific for GFRα1, LC3 and β-actin. […] (e) Quantitative analysis of the number of yellow puncta and the number of RFP-LC3 puncta in control and GFRα1-overexpressing MG-63 cells. […] Bottom, quantitative analysis of the number of AVOs. […] (h) Control and GFRα1-overexpressing MG-63 cells were treated with cisplatin (20 μM) for 24 hr and then analyzed by TEM. Top, representative images of autophagic vacuoles detected after cisplatin treatment in control and GFRα1-overexpressing MG-63 cells. […] Bottom, quantitative analysis of the number of autophagic vacuoles. […] Cell viability was measured using the WST-1 assay. […] Cell viability was measured using the WST-1 assay. […]

[4] = tested on: GFRα1-overexpressing MG-63 clone #4; test: Colony-forming assay in the presence of cisplatin; details: cisplatin 20 μM 10 days; 3-MA (10 μM), Baf (100 nM), CQ (30 μg/ml)
Source text: FIG. 3. […] Scale bar, 20 μm. […] Scale bar, 20 μm. […] Scale bar, 20 μm.

Structure (SMILES): COC(=O)C[C@H](NC(=O)[C@H](C)NC(=O)[C@@H](NC(=O)OCc1ccccc1)C(C)C)C(=O)CF [ZVAD-FMK] (Cbz-Val-Ala-Asp(OMe)-CH2F)
- Caspase-3 activity increase in cisplatin-treated GFRα1-deficient MG-63 cells [1]: reversed this effect

Structure (SMILES): CO/C1=C\C(C)=C\[C@@H](C)[C@@H](O)[C@@H](C)C/C(C)=C/C=C/[C@H](OC)[C@@H]([C@@H](C)[C@@H](O)[C@H](C)[C@@]2(O)C[C@@H](O)[C@H](C)[C@@H](C(C)C)O2)OC1=O [Baf, bafilomycin A1]
- level of LC3-II expression [2]: increased
- increase of cell proliferation in GFRα1 overexpressing cells [3]: not
- number of colonies [4]: effectively reduced

— patent US20180171411A1, “GFRalpha1 AS A BIOMARKER FOR CISPLATIN-INDUCED CHEMORESISTANCE AND METASTASIS” (THE BOARD OF REGENTS OF THE UNIVERSITY OF TEXAS SYSTEM, priority 2015, published 2018)
